Assay [1] deals with Vibrio harveyi BB170 strain. As to conditions: Keersmaecker et al.; reporter strain of Vibrio harveyi; activity detected at considerably higher concentration than DPD; cited from earlier work.
Assay [2] relates to Vibrio harveyi BB170 strain. Briefly: AI-2 reporter bioassay: photogenesis intensity of Vibrio harveyi BB170 reporter bacterium. Type of assay: cell-based. The procedure:
An HMF authentic preparation (SIGMA) and a DPD authentic preparation (examination of synthesis was requested to OMM Scientific, and a product synthesized by the company was purchased) were added at a final concentration of 0.001 to 1000 μM to a Vibrio harveyi BB170 strain (purchased from ATCC, cultured under aerobic conditions at 30° C. in a marine medium (manufactured by Difco)) used as an autoinducer-2 (AI-2) reporter bacterium. The photogenesis intensity as the index of the AI-2 activity was measured in the same way as in Keersmaecker S. C. J. et al., J. Biol. Chem., 280(20), pp. 19563-19568, 2005. Namely, the Vibrio harveyi BB170 strain was diluted to 5000-fold as a final concentration with an AB medium (for example, see Bassler et al., Mol. Microbiol., 9, pp. 773-786, 1993), and the reporter bacterium liquid and the authentic preparations were mixed at a volume ratio of 9:1, followed by culturing with aerobic shaking at 30° C. Four hours later, the photogenesis intensity was measured using a chemiluminescence analyzer (Berthold, Mitharas LB940 (product name), detecting chemiluminescence). FIG. 1 illustrates a correlation between the concentrations of the HMF authentic preparation and DPD authentic preparation, and the photogenesis intensity. The HMF authentic preparation and DPD authentic preparation were prepared in glass containers. […]

The next assay deals with AI-2. The following applies: Niu C. et al., Lett. Appl. Microbiol. 2006; cited from earlier work.

SMILES strings stand for the structures. Where only a bound is given, the exact number is not on record here.

Results on two molecules are retold here after patent US8846327B2, “Method of quantifying autoinducer-2” (priority 2007, dated 2014).

Regarding `CC1=C(O)C(=O)CO1` [HMF, 4-hydroxy-5-methyl-3(2H)-furanone], the autoinducer-2 activity result in assay [1] is “has an autoinducer-2 activity”. The “HMF concentration detectable in the bioassay” value in assay [2] (calibration curve prepared using glass containers) is at most 0.1 µM. Besides, the “HMF-induced photogenesis intensity of the reporter bacterium compared with autoinducer-2” value in assay [2] (reporter bacterium light emission) is given as “lower than the photogenesis intensity induced by autoinducer-2”.

For the molecule `O=CC=Cc1ccccc1` [Cinnamaldehyde, 3-phenyl-2-propenal], the AI-2-inhibiting activity result in the assay with AI-2 is reported as “having an AI-2-inhibiting activity”.
